Reference: patent publication US6096874A (Board of Regents, the University of Texas System, priority 1995, dated 2000)

Experiments:
[1] = Biodistribution in estradiol-primed or unprimed female Sprague-Dawley rats; type: in vivo, rat
Protocol: Four groups of rats (150-200 gm, N=4/group) were anesthetized with ketamine (10-15 mg/rat). […]. Tissue uptake of ^18 F-tracer was determined at 2 and 4 hours (h). To ascertain whether the ^18 F-tracer uptake was mediated by a receptor-process, one group of rats was given ^18 F-tracer without priming with estradiol; and another group of rats was given unlabeled estradiol (30 μg/rat) together with ^18 F-tracer. […].
The inventors first determined the in vivo tissue distribution of [^18 F-FTX] in rats. Specifically, four groups of female Sprague-Dawley rats (N=4/group, 200-250 gm; obtained from Harlan Inc., Indianapolis, Ind.) were anesthetized with ketamine (10-15 mg/rat). […]. The tissue distribution was studied at 2 hour and 4 hour intervals.

[2] = system: breast tumors; assay: PET imaging of ER+ breast tumors in patients; type: in vivo, human; conditions: for SUV in lesion of patients responding poorly to tamoxifen therapy: 4/5 patients
[3] = system: uterus and ovaries; assay: PET imaging of pig uterus and ovaries and blood clearance in pigs; type: in vivo; conditions: for Uterus/ovary uptake in PET image (in words): 1 h postinjection
Protocol: PET imaging was performed on four domestic female pigs (30 lb) with a positron camera (Positron Corporation, Houston, Tex). Each pig was supine in the scanner so that the detector rings would span the entire pelvic region. Prior to scanning, the position of the uterus and ovaries was determined by hysterosalpingography. Fifteen milliliters of radiopaque (Renografin 76 Squibb Diagnostic, New Brunswick, N.J.) was injected through the vagina into the uterus via a 5 Fr catheter with the balloon inflated by 1 ml of air. Radiographs of the pelvis in the anterior-posterior projection were taken. The location of the uterus was marked permanently on the skin of each pig for positioning in the PET camera.
A 20 min attenuation scan was performed with a 4 mCi ^68 Ge-ring source prior to tracer injection. After each pig received 10 mCi of [^18 F]FTX, […] consecutive 10 min scans were acquired. There was a 5 min wait between scans for data transfer. […] In order to examine the blood clearance profile of [^18 F]FTX, venous blood samples (0.5 ml) were collected every minute for the first ten minutes, followed by every ten minutes up to two hours. Serial transaxial images of the pelvic region were performed in order to view the uterus. The tomograph has a field-of-view of t42 cm on transverse and 12 cm on coronal planes. The axial resolution on the reconstructed plane is 1.2 cm.

[4] = system: breast tumors; assay: PET imaging of ER+ breast tumors in patients; type: in vivo, human
Protocol: This example describes a ligand for imaging ER (+) breast tumors by positron emission tomography (PET) or single photon emission computed tomography (SPECT).
PET imaging was performed on three breast cancer patients (age 54±3) (ER+) with a positron camera (Positron Corporation, Houston, Tex.). Each patient was positioned supine in the scanner so that the detector rings would span the entire breast cancer region. A 20-min attenuation scan was performed with a 4 mCi [^68 Ge]-ring source prior to [^18 F]FTX. After each patient received 4 mCi of {^18 F]FTX, six consecutive 20 min scans were acquired. Serial transaxial images were performed. The tomograph has a field-of-view of 42 cm on transverse and 12 cm on coronal plans. The axial resolution on the reconstructed plan is 1.2 cm. […] The SUV value is generated using a dedicated computer.

[5] = 2 h, blocked with estradiol 30 μg, listed as 18 Ftracer, 120 min
[6] = 2 h, blocked with estradiol 30 μg, listed as N,N-DIETHYL-[^18 F]FLUOROMETHYLTAMOXIFEN, 120 min
[7] = 2 h, estradiol-primed, listed as 18 Ftracer, 120 min
[8] = 2 h, not primed, listed as 18 Ftracer, 120 min
[9] = 2 h, not primed, listed as N,N-DIETHYL-[^18 F]FLUOROMETHYLTAMOXIFEN, 120 min
[10] = 4 h, estradiol-primed, listed as 18 Ftracer, 240 min

CCN(CC)CCOc1ccc(/C(=C(/CCC[18F])c2ccccc2)c2ccccc2)cc1 [[^18 F]FTX, (trans)[^18 F]Fluoromethyl-N,N-diethyltamoxifen]
Blood uptake [1, 5]: 0.048 % OF INJECTED DOSE/GRAM OF TIS | Bone uptake [1, 5]: 0.576 % OF INJECTED DOSE/GRAM OF TIS | Intestine uptake [1, 5]: 0.742 % OF INJECTED DOSE/GRAM OF TIS | Liver uptake [1, 5]: 4.451 % OF INJECTED DOSE/GRAM OF TIS | Muscle uptake [1, 5]: 0.145 % OF INJECTED DOSE/GRAM OF TIS | Uterus uptake [1, 5]: 0.297 % OF INJECTED DOSE/GRAM OF TIS | Blood uptake [1, 6]: 0.048 % OF INJECTED DOSE/GRAM OF TISSUE WEIGHT | Bone uptake [1, 6]: 0.576 % OF INJECTED DOSE/GRAM OF TISSUE WEIGHT | Intestine uptake [1, 6]: 0.742 % OF INJECTED DOSE/GRAM OF TISSUE WEIGHT | Liver uptake [1, 6]: 4.451 % OF INJECTED DOSE/GRAM OF TISSUE WEIGHT | Muscle uptake [1, 6]: 0.145 % OF INJECTED DOSE/GRAM OF TISSUE WEIGHT | Uterus uptake [1, 6]: 0.297 % OF INJECTED DOSE/GRAM OF TISSUE WEIGHT | Blood uptake [1, 7]: 0.033 % OF INJECTED DOSE/GRAM OF TIS | Bone uptake [1, 7]: 0.653 % OF INJECTED DOSE/GRAM OF TIS | Intestine uptake [1, 7]: 0.917 % OF INJECTED DOSE/GRAM OF TIS | Kidney uptake [1, 7]: 0.742 % OF INJECTED DOSE/GRAM OF TIS | Liver uptake [1, 7]: 4.540 % OF INJECTED DOSE/GRAM OF TIS | Muscle uptake [1, 7]: 0.151 % OF INJECTED DOSE/GRAM OF TIS | Uterus uptake [1, 7]: 0.426 % OF INJECTED DOSE/GRAM OF TIS | Bone uptake ([1]; 2 h, estradiol-primed, listed as [^18 F]fluoro analogue of tamoxifen, 120 min): 0.65 % OF INJECTED DOSE/GRAM OF TIS | Blood uptake [1, 8]: 0.033 % OF INJECTED DOSE/GRAM OF TIS | Bone uptake [1, 8]: 0.644 % OF INJECTED DOSE/GRAM OF TIS | Intestine uptake [1, 8]: 0.504 % OF INJECTED DOSE/GRAM OF TIS | Kidney uptake [1, 8]: 0.530 % OF INJECTED DOSE/GRAM OF TIS | Liver uptake [1, 8]: 3.849 % OF INJECTED DOSE/GRAM OF TIS | Muscle uptake [1, 8]: 0.109 % OF INJECTED DOSE/GRAM OF TIS | Uterus uptake [1, 8]: 0.248 % OF INJECTED DOSE/GRAM OF TIS | Blood uptake [1, 9]: 0.033 % OF INJECTED DOSE/GRAM OF TISSUE WEIGHT | Bone uptake [1, 9]: 0.644 % OF INJECTED DOSE/GRAM OF TISSUE WEIGHT | Intestine uptake [1, 9]: 0.504 % OF INJECTED DOSE/GRAM OF TISSUE WEIGHT | Kidney uptake [1, 9]: 0.530 % OF INJECTED DOSE/GRAM OF TISSUE WEIGHT | Liver uptake [1, 9]: 3.849 % OF INJECTED DOSE/GRAM OF TISSUE WEIGHT | Muscle uptake [1, 9]: 0.109 % OF INJECTED DOSE/GRAM OF TISSUE WEIGHT | Uterus uptake [1, 9]: 0.248 % OF INJECTED DOSE/GRAM OF TISSUE WEIGHT | Blood uptake [1, 10]: 0.045 % OF INJECTED DOSE/GRAM OF TIS | Bone uptake [1, 10]: 0.802 % OF INJECTED DOSE/GRAM OF TIS | Intestine uptake [1, 10]: 1.101 % OF INJECTED DOSE/GRAM OF TIS | Kidney uptake [1, 10]: 0.796 % OF INJECTED DOSE/GRAM OF TIS | Liver uptake [1, 10]: 4.205 % OF INJECTED DOSE/GRAM OF TIS | Muscle uptake [1, 10]: 0.183 % OF INJECTED DOSE/GRAM OF TIS | Uterus uptake [1, 10]: 0.400 % OF INJECTED DOSE/GRAM OF TIS | Bone uptake ([1]; 4 h, estradiol-primed, listed as [^18 F]fluoro analogue of tamoxifen, 240 min): 0.80 % OF INJECTED DOSE/GRAM OF TIS | SUV in lesion of patients responding poorly to tamoxifen therapy ([2]; listed as 18 F-tamoxifen): < 2.0 | SUV in lesion of patients responding poorly to tamoxifen therapy ([2]; listed as [^18 f]fluorotamoxifen): less than 2.0 | SUV ([2]; patient 1, left breast): 1.6 | SUV ([2]; patient 1, spine): 6.2 | SUV ([2]; patient 1, sternum): 4.2 | SUV ([2]; patient 3, left breast): 2.6 | SUV ([2]; patient 4, right axilla): 1.3 | SUV ([2]; patient 5, lung): 3.3 | SUV ([2]; patient 6, left axilla): 2.9 | SUV ([2]; patient 7, skull): 0.9 | SUV ([2]; patient 8, neck): 2.4 | SUV ([2]; patient 9, scapula): 1.3 | SUV ([2]; patient 10, spine): 6.3 | Time to clearance from the blood stream ([3]; 10 mCi i.v., pig): ≤ 10 min | Uterus/ovary uptake in PET image (in words) ([3]; 10 mCi i.v.): increased uptake could be blocked after pretreatment with DES | Uterus/ovary uptake in PET image (in words) ([3]; 10 mCi i.v., listed as 18 F-tamoxifen): can be blocked with DES | Uterus/ovary uptake in PET image (in words) ([3]; 10 mCi i.v., listed as 18 F-tracer): increased uptake could be blocked after pretreatment with diethylstilbestrol | Target organ binding (in words) ([3]; 30 minutes to 2 hours post-administration, pig): constant | SUV ([4]; patient 1, left axilla): 0.7 | SUV ([4]; patient 2, mediastinum): 1.8 | SUV ([4]; patient 3, left axilla): 2.6 | SUV ([4]; patient 3, right axilla): 2.2 | SUV ([4]; patient 3, right breast): 1.6 | SUV ([4]; patient 3, spine): 3.0 | SUV of breast tumors ([4]; three patients, 4 mCi): 2-5 | SUV in tumor of patients responding well to tamoxifen therapy ([4]; three patients, listed as 18 F-tamoxifen): > 2.4 | SUV in tumor of patients responding well to tamoxifen therapy ([4]; three patients, listed as [^18 F]fluorotamoxifen): more than 2.4
